According to patent publication US10940139B2, “Compounds that interact with the Ras superfamily for the treatment of cancers, inflammatory diseases, rasopathies, and fibrotic disease” (Shy Therapeutics LLC, priority 2017, dated 2021):

test system: MIA-PACA2 pancreatic cancer cell lines; test: Cell proliferation assay, alternate assay conditions (DAPI fluorescence); assay type: cell-based; settings: Homo sapiens, MIA PaCa-2; * = tested at 10 μM, alternate conditions, MIA-PACA2
Protocol: Cell lines: Tumor-derived pancreatic cancer cell lines MIA-PACA2 were purchased from ATCC and grown in complete DMEM-High Glucose medium supplemented with penicillin (100 U/mL), streptomycin (100 μg/mL), and 10% heat-inactivated FBS at 37° C. in a humidified incubator with 5% CO2.
Method: Cells are plated at 4000 cells/well density in 96-wells plate. The next day tested small molecules are added to the cells in the final concentration of 10 μM in the presence of 0.3% DMSO and 10% FBS. After small molecules addition, cells are incubated for 4 days at 37° C. in a humidified incubator with 5% CO2. For IC50 value determination, serial dilutions of compounds were added to cells under the same conditions.
Assay: At the end of the incubation period, cell cultures are fixed with a 50-50 mixture (v/v) acetone-methanol for 10 minutes at −20° C., followed by rehydration in PBS for 10 minutes at room temperature. After rehydration, cells are stained with DAPI (1 μg/ml) in PBS for 10 minutes at room temperature, followed by 3 washes with PBS. After staining, DAPI fluorescence is recorded (358 nm excitation/461 nm emission) with the 96-well plate reader Molecular Devices Spectramax M3; degree of small mole-cule-dependent proliferation inhibition is calculated from raw data assuming No Serum cells value as 100%.

Row | SMILES | inhibition at 10 µM [%]
1 | Cc1sc2c(O)nc(-c3ccccn3)nc2c1C(=O)N1CCN(Cc2cccc(O)c2)CC1 [drawing 1809] | 25 to 50
2 | COCC(C)Nc1nc(-c2ccccn2)nc(C(=O)NCCCc2c[nH]cn2)c1Oc1ccccc1 (stereo not drawn) [drawing 1852] | 76 to 100
3 | Cc1sc2c(O)nc(-c3nccn3C)nc2c1-c1ccc(OCC(C)C)nc1 [drawing 1902] | 76 to 100
4 | Oc1nc(-c2ccccn2)nc2c(-c3cc(CN4CCCC4)ccc3F)csc12 [drawing 1799] | 76 to 100
5 | COc1ccc(COC[C@H]2O[C@@H](c3csc4c(=O)[nH]c(-c5ccccn5)nc34)[C@H](O)[C@@H]2O)cc1 [drawing 1835] | 1 to 25
6 | COc1ccc(CCC(=O)Nc2nc(-c3ccccn3)nc3sccc23)cn1 [drawing 1805] | 76 to 100
7 | CC(C)OCCNc1nc(-c2nccn2C)nc2sc(-c3ccccc3)c(-c3ccccc3)c12 [drawing 1869] | 76 to 100
8 | Oc1nc(-c2ccccn2)nc2c(C3CC3)csc12 [drawing 1820] | 76 to 100
9 | COCCNc1nc(-c2nccn2C)nc2sc(-c3ccncc3)c(-c3ccccc3)c12 [drawing 1884] | 76 to 100
10 | Oc1nc(-c2ccccn2)nc2cc(-c3cccc(Br)c3)sc12 [drawing 1866] | 76 to 100
11 | CC(C)COc1ccc(-c2csc3c(O)nc(-c4nccn4C)nc23)cn1 [drawing 1914] | 76 to 100
12 | Nc1nc(O)c2sc(-c3cccc(C(=O)N4CCC(O)C4)c3)cc2n1 (stereo not drawn) [drawing 1845] | 1 to 25
13 | Cn1cnc(-c2nc(O)c3scc(-c4cccc(C(F)(F)F)c4)c3n2)c1 [drawing 1906] | 76 to 100
14 | Oc1nc(-c2ccccn2)nc2c(-c3cncnc3)csc12 [drawing 1801] | 0
15 | COCCNc1nc(-c2nccn2C)nc2sc(C)c(-c3ccccc3)c12 [drawing 1886] | 76 to 100
16 | COCCNc1nc(-c2ccccn2)nc(-c2cccc(OCCN(C)C)c2)c1Oc1ccccc1 [drawing 1831] | 76 to 100
17 | Cc1sc2c(O)nc(-c3ccccn3)nc2c1C(=O)N1CCN(c2ccccc2)CC1C (stereo not drawn) [drawing 1808] | 76 to 100
18 | O=c1[nH]c(-c2ccccn2)nc2c([C@@H]3O[C@H](CO)[C@@H](O)[C@H]3O)csc12 [drawing 1829] | 76 to 100
19 | Oc1nc(-c2ccccn2)nc2cc(-c3ccncc3)sc12 [drawing 1863] | 76 to 100
20 | Cn1ccnc1-c1nc(O)c2scc(-c3cccc(C(F)(F)F)c3)c2n1 [drawing 1900] | 76 to 100
21 | CC(C)Oc1ccc(-c2csc3c(O)nc(-c4nccn4C)nc23)cc1F [drawing 1911] | 76 to 100
22 | COC1CCN(c2nc(-c3nccn3C)nc3sc(-c4ccccc4)c(-c4ccccc4)c23)C1 (stereo not drawn) [drawing 1873] | 76 to 100

Row | SMILES | inhibition at 10 µM [%]
23 | COCCNc1nc(-c2ccccn2)nc2c1c(-c1ccccc1)nn2-c1ccccn1 [drawing 1840] | 76 to 100
24 | COCCNc1nc(-c2nccn2C)nc2sc(-c3ccccc3)c(-c3ccccn3)c12 [drawing 1924] | 76 to 100
25 | Oc1nc(-c2ccccn2)nc2c(CC3CCNC3)csc12 (stereo not drawn) [drawing 1828] | 0
26 | Cn1cnc(-c2nc(O)c3c(-c4ccccc4)c(-c4ccc(CNC(=O)OC(C)(C)C)cc4)sc3n2)c1 [drawing 1839] | 25 to 50
27 | CCOCCNc1nc(-c2nccn2C)nc2sc(-c3ccccc3)c(-c3ccccc3)c12 [drawing 1877] | 76 to 100
28 | Cn1ccnc1-c1nc(O)c2sc(-c3ccccc3)c(-c3ccccc3Cl)c2n1 [drawing 1897] | 76 to 100
29 | COCCNc1nc(-c2nccn2C)nc2sc(-c3ccccc3)c(-c3ccccc3)c12 [drawing 1837] | 76 to 100
30 | Oc1nc(-c2ccccn2)nc2c(-c3cncc(C(F)F)c3)csc12 [drawing 1804] | 76 to 100
31 | COc1cnc(CNC(=O)c2csc3c(O)nc(-c4ccccn4)nc23)[nH]c1=O [drawing 1822] | 51 to 75
32 | COc1nc(-c2ccccn2)nc2c(-c3cccc(O)n3)csc12 | 76 to 100
33 | COc1cnc(CNC(=O)c2cc3nc(-c4ccccn4)nc(O)c3s2)[nH]c1=O [drawing 1823] | 25 to 50
34 | CCOCCOc1nc(-c2nccn2C)nc2sc(-c3ccccc3)c(-c3ccccc3)c12 [drawing 1874] | 76 to 100
35 | Oc1nc(-c2ccccn2)nc2c(Br)c(-c3ccccc3)sc12 [drawing 1855] | 76 to 100
36 | COCCNc1nc(-c2ccccn2)nc2sc(-c3ccccc3)c(-c3ccccn3)c12 [drawing 1922] | 76 to 100
37 | CN(C)CCOc1cccc(-c2csc3c(O)nc(-c4ccccn4)nc23)c1 [drawing 1798] | 76 to 100
38 | O=C(c1csc2c(O)nc(-c3ccccn3)nc12)N1CCNC(c2ccc(Cl)cc2)C1 (stereo not drawn) [drawing 1827] | 76 to 100
39 | Cc1sc2c(O)nc(-c3ccccn3)nc2c1-c1ccccc1Cl [drawing 1817] | 76 to 100
40 | Nc1nc(O)c2sc(-c3cccc(C(=O)NC4CCNC4=O)c3)cc2n1 (stereo not drawn) [drawing 1844] | 0
41 | Cc1nn(C(C)C)cc1-c1csc2c(O)nc(-c3ccccn3)nc12 [drawing 1803] | 76 to 100
42 | COC(=O)c1c(C)sc2c(O)nc(-c3ccccn3)nc12 [drawing 1810] | 25 to 50
43 | COCCNc1nc(-c2nccn2C)nc2sc(C3CCOCC3)c(-c3ccccc3)c12 [drawing 1892] | 76 to 100
44 | COc1cnc(CNC(=O)c2sc3c(O)nc(-c4ccccn4)nc3c2C)[nH]c1=O [drawing 1826] | 0

Row | SMILES | inhibition at 10 µM [%]
45 | CC(C)c1nn(C)cc1-c1csc2c(O)nc(-c3ccccn3)nc12 [drawing 1797] | 76 to 100
46 | COCC(C)Nc1nc(-c2nccn2C)nc2sc(-c3ccccc3)c(-c3ccccc3)c12 (stereo not drawn) [drawing 1879] | 76 to 100
47 | Cn1ccnc1-c1nc(O)c2scc(-c3ccc(F)cc3F)c2n1 [drawing 1918] | 76 to 100
48 | CC(C)Cc1csc2c(O)nc(-c3ccccn3)nc12 [drawing 1813] | 76 to 100
49 | COc1cnc(-c2nccn2C)nc1O [drawing 1815] | 51 to 75
50 | Cc1sc2c(O)nc(-c3nccn3C)nc2c1-c1ccccc1 [drawing 1896] | 76 to 100
51 | COCCNc1nc(-c2cccc(N)n2)nc2sc(-c3ccccc3)c(-c3ccccc3)c12 [drawing 1893] | 76 to 100
52 | COc1c(O)nc(-c2ccccn2)nc1Oc1cccc(C(F)(F)F)c1 [drawing 1859] | 76 to 100
53 | Cc1sc2c(O)nc(-c3nccn3C)nc2c1-c1cccc(C(F)(F)F)c1 [drawing 1901] | 76 to 100
54 | COc1cnc(CNC(=O)c2c(C)sc3c(O)nc(-c4ccccn4)nc23)[nH]c1=O [drawing 1825] | 0
55 | Cn1ccnc1-c1nc(O)c2scc(-c3ccccc3)c2n1 [drawing 1916] | 76 to 100
56 | COc1nc(-c2cn(C)cn2)nc2sc(-c3ccncc3)c(-c3ccccc3)c12 [drawing 1833] | 76 to 100
57 | Cn1cnc(-c2nc(O)c3scc(-c4cccc(OC(F)(F)F)c4)c3n2)c1 [drawing 1908] | 76 to 100
58 | N#Cc1cccc(-c2csc3c(O)nc(-c4ccccn4)nc23)c1 [drawing 1800] | 76 to 100
59 | COc1nc(-c2ccccn2)nc(Oc2cccc(C(F)(F)F)c2)c1O [drawing 1867] | 1 to 25
60 | COc1ccc(-c2c(C)sc3c(O)nc(-c4nccn4C)nc23)cn1 [drawing 1903] | 25 to 50
61 | Cc1sc2c(O)nc(-c3nccn3C)nc2c1-c1ccc(OC(C)C)c(F)c1 [drawing 1912] | 76 to 100
62 | COc1cnc(-c2cnc[nH]2)nc1O [drawing 1818] | 0
63 | Cn1ccnc1-c1nc(NCCOC2CC2)c2c(-c3ccccc3)c(-c3ccccc3)sc2n1 [drawing 1878] | 76 to 100
64 | Cn1ccnc1-c1nc(O)c2sc(-c3ccccc3)c(-c3cccc(C(F)(F)F)c3)c2n1 [drawing 1894] | 25 to 50
65 | OCC1(c2ccc(-c3nc(-c4ccccn4)nc(-c4ccc(C5(CO)CC5)cc4)c3Oc3ccccc3)cc2)CC1 [drawing 1834] | 76 to 100

same assay, conditions: Homo sapiens, MIA PaCa-2; MIA-PACA2, same assay as the % inhibition (alternate conditions)

Row | SMILES | IC50 [nM]
66 | CC(C)COc1ccc(-c2csc3c(O)nc(-c4nccn4C)nc23)cn1 [drawing 1914] | 100 to 500
67 | COCCNc1nc(-c2nccn2C)nc2sc(C)c(-c3ccccc3)c12 [drawing 1886] | 501 to 1000
68 | Cn1ccnc1-c1nc(O)c2scc(-c3cccc(C(F)(F)F)c3)c2n1 [drawing 1900] | > 1000
69 | COC1CCN(c2nc(-c3nccn3C)nc3sc(-c4ccccc4)c(-c4ccccc4)c23)C1 (stereo not drawn) [drawing 1873] | 501 to 1000
70 | COCCNc1nc(-c2nccn2C)nc2sc(-c3ccccc3)c(-c3ccccn3)c12 [drawing 1924] | 501 to 1000
71 | CCOCCNc1nc(-c2nccn2C)nc2sc(-c3ccccc3)c(-c3ccccc3)c12 [drawing 1877] | 501 to 1000
72 | Cn1ccnc1-c1nc(O)c2sc(-c3ccccc3)c(-c3ccccc3Cl)c2n1 [drawing 1897] | 100 to 500
73 | COCCNc1nc(-c2nccn2C)nc2sc(-c3ccccc3)c(-c3ccccc3)c12 [drawing 1837] | 501 to 1000
74 | COCC(C)Nc1nc(-c2nccn2C)nc2sc(-c3ccccc3)c(-c3ccccc3)c12 (stereo not drawn) [drawing 1879] | 501 to 1000
75 | Cc1sc2c(O)nc(-c3nccn3C)nc2c1-c1cccc(C(F)(F)F)c1 [drawing 1901] | 100 to 500
